Assay results from patent publication US20110236859A1, “ORAL CARE COMPOSITION CONTAINING OXIDASE ENZYME” (priority 2009, published 2011).

Experiment: Glucose oxidase binding to saliva-coated hydroxyapatite disks (Amplex Red horseradish peroxidase coupled assay)
Protocol: Glucose oxidase binding to saliva coated hydroxyappetite disks is measured using a fluorescent (Amplex Red) horseradish peroxidase coupled assay directly from the disk surface.
Hydroxyapatite (HAP) disks coated with saliva are commonly used as models of a tooth surface.
Saliva was collected from 3-5 donors, clarified by centrifugation, and added to cover HAP disks (5 mm×2.0 mm Clarkson Chromatography) in a covered plastic tray. The disks were incubated with the saliva overnight, with gentle shaking, at room temperature. The disks were rinsed twice with 50 mM phosphate buffer prior to use in the binding assay. Varying concentrations of glucose oxidase (50-650 mU/ml) were added to the saliva-coated HAP disks in the presence of sorbitol (0.8-8%) or polyethyleneimine (1%). The amount of glucose oxidase retained on the hydroxyapatite disks, following three consecutive washes with phosphate buffered saline, was measured using a fluorescence (Amplex Red, Molecular Probes #A22189) horseradish peroxidase coupled assay, as per manufacturer's recommendation.

- binding of glucose oxidase to saliva coated hydroxyapatite disks relative to no additive (FIG. 1, additive sorbitol 8, 0.8, 0.08%, fluorescent Amplex Red HRP coupled assay from disk surface): improve binding relative to no additive
Structure (SMILES): OC[C@@H](O)[C@@H](O)[C@H](O)[C@@H](O)CO [sorbitol]
- amount of active glucose oxidase detected on the hydroxyapatite (at least 0.8% sorbitol, glucose oxidase 50-650 mU/ml, after three washes with phosphate buffered saline): increased the amount of active glucose oxidase detected on the hydroxyapatite
